Test results published in ChEMBL document CHEMBL1129005 (Bioorg Med Chem Lett, 1996).

Tests used:
[1] = target: T1, Muscarinic acetylcholine receptor M2 (Homo sapiens, UniProt P08172); assay: Compound was evaluated for displacement of [3H]-QNB from human Muscarinic m2 receptor in CHO cells.; format: cell-based
T1 sequence (P08172 whole entry): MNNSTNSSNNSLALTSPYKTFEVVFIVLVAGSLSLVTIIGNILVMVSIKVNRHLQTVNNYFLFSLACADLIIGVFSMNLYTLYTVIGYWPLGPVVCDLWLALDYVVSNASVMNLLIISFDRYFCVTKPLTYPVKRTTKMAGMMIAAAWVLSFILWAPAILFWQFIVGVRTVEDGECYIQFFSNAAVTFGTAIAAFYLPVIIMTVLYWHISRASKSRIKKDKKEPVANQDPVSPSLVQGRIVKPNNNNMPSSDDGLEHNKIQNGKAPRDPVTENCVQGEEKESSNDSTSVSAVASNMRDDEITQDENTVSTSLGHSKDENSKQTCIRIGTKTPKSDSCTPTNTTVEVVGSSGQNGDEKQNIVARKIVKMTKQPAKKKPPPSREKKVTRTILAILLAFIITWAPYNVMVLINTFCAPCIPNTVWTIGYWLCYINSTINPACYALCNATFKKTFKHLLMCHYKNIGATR

[2] = target: T2, Muscarinic acetylcholine receptor M1 (Homo sapiens, UniProt P11229); assay: Compound was evaluated for displacement of [3H]QNB from human Muscarinic m1 receptor in CHO cells.; format: cell-based
T2 sequence (P11229 whole entry): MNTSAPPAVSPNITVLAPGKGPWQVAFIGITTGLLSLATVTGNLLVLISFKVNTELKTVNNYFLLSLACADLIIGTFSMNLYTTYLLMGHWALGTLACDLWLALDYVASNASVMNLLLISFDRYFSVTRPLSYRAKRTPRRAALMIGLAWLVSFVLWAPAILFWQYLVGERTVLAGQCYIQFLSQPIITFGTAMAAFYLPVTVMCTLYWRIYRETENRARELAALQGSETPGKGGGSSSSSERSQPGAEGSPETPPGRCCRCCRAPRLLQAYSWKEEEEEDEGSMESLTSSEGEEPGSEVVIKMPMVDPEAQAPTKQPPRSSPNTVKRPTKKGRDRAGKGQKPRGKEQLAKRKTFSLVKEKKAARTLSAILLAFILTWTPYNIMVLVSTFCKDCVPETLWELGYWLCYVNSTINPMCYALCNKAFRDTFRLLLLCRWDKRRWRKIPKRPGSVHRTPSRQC

SMILES	Ki [1] [nM]	Ki [2] [nM]
CCCN(CCC)CC1CCCCN1CCNC(=O)N1c2ccccc2C(=O)Nc2cccnc21 (stereo unspecified)	5.28	12.4
CCN(CC)CC1CCCCN1CC(=O)N1c2ccccc2C(=O)Nc2cccnc21 (stereo unspecified) [OTENZEPAD]	52	179
CC1CCN(CC(=O)N2c3ccccc3C(=O)Nc3cccnc32)CC1	71.2	82.4
